{
  "source": "patent US10836793B2",
  "about": "“Compounds for the treatment of neurodegenerative diseases” (University of South Florida, priority 2018, dated 2020)",
  "key": {"Aβ42 [1]": {"target": "T1, Aβ42 (Homo sapiens, UniProt P05067)", "T1 construct": "and 42 amino acids in length (Aβ42)", "T1 sequence (P05067 672-713 limits assumed)": "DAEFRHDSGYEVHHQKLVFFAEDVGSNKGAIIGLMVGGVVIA", "test": "Thioflavin T (ThT) spectroscopic assay of Aβ42 aggregation", "format": "biochemical", "details": "1, 5 and 10 μM HW-C-9; Aβ42 5 μM; 37° C.; FIG. 4", "experimental": "(§1) The effect of HW-C-9 on Aβ42 was analyzed using the Thioflavin T (ThT) spectroscopic assay. Thioflavin T (ThT) is a benzothiazole salt obtained by the methylation of dehydrothiotoluidine with methanol in the presence of hydrochloric acid. ThT was used as a dye to visualize and quantify the presence or fibrilization of misfolded protein aggregates. Briefly, HW-C-9 in Tris Buffered Saline (TBS, pH 7.5) containing 10 μM ThT was added into a black 96 well plate. Aβ42 protein monomer was freshly thawed and used to make a stock 5 μM solution in TBS. An equal volume of Aβ42 solution was added to each well to a final concentration of 2.5 μM Aβ42 and incubated at 37° C. Time-dependent fluorescence change was monitored by a Synergy 2 plate reader at an excitation wavelength of 440 nm and emission at 482 nm. The fluorescence intensity of ThT was measured over time, as ThT changed fluorescence intensity upon binding to the Aβ42 protein aggregates. 100% aggregation was defined as the fluorescence change of 2.5 μM Aβ42 in TBS buffer containing 5 μM ThT after 24 hours.\nIn FIG. 4, C1 is 1 μM of HW-C-9, C3 is 5 μM of HW-C-9, and C4 is 10 μM of HW-C-9. Aβ42 was present in all samples at a concentration of 5 μM. The top curve (red line, “Agg”) is the Aβ42-only control."}, "[2]": {"tested_on": "recombinant human tau protein", "test": "ThT assay of tau protein aggregation", "format": "biochemical", "details": "100, 50, 20, 10 and 1 μM HW-C-9; Tau 10 μM; FIG. 5", "experimental": "as §1\nThe effect of HW-C-9 on recombinant human tau protein was analyzed using the ThT assay, as detailed in Example 2, but with tau protein in place of Aβ42. In FIG. 5, C1 is 100 μM of HW-C-9, C2 is 50 μM of HW-C-9, C3 is 20 μM of HW-C-9, C4 is 10 μM of HW-C-9, and C5 is 1 μM of HW-C-9. […]"}, "Aβ42 [3]": {"target": "T1, Aβ42", "test": "Western blot of Aβ42 aggregation", "format": "biochemical", "details": "40 μM HW-C-9 and 20 μM Aβ; FIG. 6A", "experimental": "(§2) Shown in FIG. 6A is a Western blot of Aβ42, wherein lane 1 is 20 μM of Aβ, lane 2 is 40 μM of HW-155-1 as a control and 20 μM of Aβ, and lane 3 is 40 μM of HW-C-9 and 20 μM of Aβ. Shown in FIG. 6B on the left is mouse brain tissue incubated overnight with and without 25 μM of HW-C-9, and then immunohistochemically stained with Aβ42 antibodies. On the right of FIG. 6B is a graphical quantification of the density and strength of the antibody stains."}, "[4]": {"tested_on": "Aβ42 amyloid plaques in mouse brain tissue", "test": "Mouse brain tissue incubated with compound, immunohistochemical staining with Aβ42 antibodies", "details": "mouse brain tissue incubated overnight with 25 μM HW-C-9; FIG. 6B", "experimental": "as §2"}, "[5]": {"target": "human recombinant alpha-synuclein (Homo sapiens, UniProt P37840)", "test": "Western blot of alpha-synuclein aggregation", "format": "biochemical", "details": "aggregated for 7 days in the presence of 25 μg/mL HW-C-9; FIG. 7", "experimental": "The effect of HW-C-9 on synuclein was analyzed with a Western blot. Results are shown in FIG. 7, wherein lane 1 is human recombinant alpha-synuclein (stained with goat anti-human alpha-synuclein antibody) without aggregation as a control, lane 2 is human recombinant alpha-synuclein (stained with goat anti-human alpha-synuclein antibody) aggregated for 7 days, and lane 3 is human recombinant alpha-synuclein (stained with goat anti-human alpha-synuclein antibody) aggregated for 7 days in the presence of 25 μg/mL of HW-C-9."}},
  "data": [
    {"compound": "C=CCOC(=O)N(CC(=O)N[C@@H](Cc1ccccc1)CN(CC(=O)N[C@@H](CCCCN)CN(CC(=O)N[C@@H](CC(C)C)CN(CC(=O)NCCCCCCCC(=O)NCCCC[C@H](NC(=O)CCCCCCCNC(=O)CN(C[C@H](CC(C)C)NC(=O)CN(C[C@H](CCCCN)NC(=O)CN(C[C@H](Cc1ccccc1)NC(=O)CN(C[C@@H](N)CCCCN)C(=O)OCC=C)C(=O)CCc1ccccc1)C(=O)CC(C)C)C(=O)CC(C)C)C(N)=O)C(=O)CC(C)C)C(=O)CC(C)C)C(=O)CCc1ccccc1)C[C@@H](N)CCCCN", "note": "[HW-C-9]", "values": [
      {"measurement": "inhibition of Aβ42 aggregation (ThT fluorescence)", "setting": "Aβ42 [1]", "result": "can inhibit Aβ42 aggregation at all concentrations tested"},
      {"measurement": "inhibition of tau protein aggregation (ThT fluorescence)", "setting": "[2]", "result": "can inhibit aggregation of tau protein at all concentrations tested"},
      {"measurement": "inhibition of Aβ42 aggregation (Western blot)", "setting": "Aβ42 [3]", "result": "can inhibit aggregation of Aβ42"},
      {"measurement": "removal of amyloid plaques (density and strength of Aβ42 antibody stains)", "setting": "[4]", "result": "remove amyloid plaques"},
      {"measurement": "inhibition of alpha-synuclein aggregation (Western blot)", "setting": "[5]", "result": "can inhibit aggregation of alpha-synuclein"}
    ]}
  ]
}
